# Test results from patent US20160030510A1, “METHODS OF TREATING ALZHEIMER'S DISEASE AND OTHER TAUOPATHIES WITH INHIBITORS OF MICROTUBULE AFFINITY REGULATING KINASE” (The Board of Trustees of the Leland Stanford Junior …, priority 2012, published 2016).
# Where a SMILES comes first, the peptide text is derived from it. Where no end group is shown, it is not given here.
# What was measured:
# [1] = target: T1, Human MARK4 (Homo sapiens, UniProt Q96L34); experiment: In vitro kinase assay of MARK4 phosphorylating tau (Western blot); format: biochemical; details: human MARK4 and tau affinity-purified from HEK293 cells, FIG. 7
# T1 construct: made in house; host or cells: HEK293 cells
# T1 sequence (Q96L34 1-752): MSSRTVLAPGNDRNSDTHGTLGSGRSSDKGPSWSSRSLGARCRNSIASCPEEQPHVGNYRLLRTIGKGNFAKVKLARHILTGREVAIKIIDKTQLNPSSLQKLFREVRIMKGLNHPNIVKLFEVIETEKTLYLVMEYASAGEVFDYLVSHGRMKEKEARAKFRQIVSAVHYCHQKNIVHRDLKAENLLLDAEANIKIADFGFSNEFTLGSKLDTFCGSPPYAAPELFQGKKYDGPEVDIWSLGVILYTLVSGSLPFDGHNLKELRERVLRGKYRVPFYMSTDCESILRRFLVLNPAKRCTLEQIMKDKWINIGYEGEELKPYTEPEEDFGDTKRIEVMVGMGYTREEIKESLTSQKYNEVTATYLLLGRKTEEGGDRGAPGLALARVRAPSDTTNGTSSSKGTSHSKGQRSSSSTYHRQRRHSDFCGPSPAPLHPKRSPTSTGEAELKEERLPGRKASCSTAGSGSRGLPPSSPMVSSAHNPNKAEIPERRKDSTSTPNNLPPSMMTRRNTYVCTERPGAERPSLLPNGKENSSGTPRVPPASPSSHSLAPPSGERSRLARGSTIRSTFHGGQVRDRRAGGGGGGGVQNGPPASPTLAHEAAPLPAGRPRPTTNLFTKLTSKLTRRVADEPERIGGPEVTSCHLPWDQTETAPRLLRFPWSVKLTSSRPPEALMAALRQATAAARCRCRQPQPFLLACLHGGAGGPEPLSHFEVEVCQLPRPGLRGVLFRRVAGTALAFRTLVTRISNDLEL
# Source text: Both human MARK4 and tau proteins were expressed in HEK293 cells and affinity-purified by immunoprecipitation. After in vitro kinase reaction in the presence or absence of the peptides, the reaction mixtures were separated on SDS-PAGE to separate the proteins, and the levels of total tau and phospho-tau generated by MARK4 were detected by Western blot analysis. The TAT peptide was used as a negative control. Note the inhibition of MARK4-mediated tau phosphorylation by both TAT-MKI and MKI-TAT.
# We next tested the ability of the TAT-MKI and MKI-TAT fusions to inhibit the activity of MARK4 kinase in phosphorylating the tau protein (FIG. 7). Human MARK4 and tau proteins were expressed in HEK293 cells and affinity-purified by immunoprecipitation. In vitro kinase reactions were performed in the presence or absence of the TAT-MKI and MKI-TAT fusion peptides and the levels of total tau and phospho-tau generated by MARK4 were detected by Western blot analysis. The TAT peptide was used as a negative control. Both the TAT-MKI and MKI-TAT fusion peptides inhibited MARK4-mediated tau phosphorylation in vitro.
# [2] = test system: rat hippocampal neurons; format: cell-based; details: FIG. 4D
# [3] = test system: rat hippocampal neurons; experiment: Aβ oligomer-induced synaptic and dendritic spine defects in hippocampal neurons (morphology); format: cell-based; details: 5 μM Aβ oligomer-treated neurons
# Protocol: FIGS. 4A-4C show the effects of MKI-EGFP on Aβ-induced loss of PSD-95 (FIG. 4A) and GluR1 (FIG. 4B) clusters and spine numbers. Neurons transfected with MKI-EGFP or EGFP were treated with Aβ oligomer or mock-treated with solvent as control. The cytoplasmic GFP signals allowed detection of dendritic spines, and PSD-95 or GluR1 clusters were detected by immunostaining. Quantification of data is shown in (FIG. 4C) (***P<0.001 in Student's t-test). […] Summary graphs from four to six culture sets plotting normalized mEPSC frequency and mEPSC amplitude are shown beneath the traces. Scale bar, 5 μm.
# (§1) Rat E18 hippocampal neuron primary cultures were prepared as described (Yu et al. (2011) Hum. Mol. Genet. 20:3227-3240, herein incorporated by reference in its entirety). Cultured neurons, grown for 10-days in vitro in 12-well plates, were transfected with 2-3 μg of plasmid per well using a CalPhos Mammalian Transfection Kit (Clontech, San Jose, Calif., USA). Fluorescence immunocytochemistry was performed 3 days after transfection. Preparation and concentration of lentiviral particles were performed as described before (Yu et al., supra). Viral transfection of hippocampal neurons was carried out at 10 days after in vitro culture. The next day, the culture medium was replaced with 50% fresh medium and 50% conditioned medium.
# Commercial Aβ-42 peptide was purchased from rPeptide (Bogart, Ga., USA). […]
# (§2) Chicken anti-EGFP (1:4000) and rabbit anti-HA (1:3000) antibodies were purchased from Abcam (Cambridge, Mass., USA); mouse anti-Myc (1:1500, 4A6) and mouse anti-PSD-95 (1:300) from Millipore (Billerica, Mass., USA); rabbit anti-GluR1 (1:200) from Calbiochem (San Diego, Calif., USA) and rabbit anti-Synapsin I (1:1000) from Sigma (St Louis, Mo., USA). […] Dendritic spine number and clusters of PSD-95, GluR1 or Synapsin I were manually counted as the number along a 10 μm length of dendrite and presented as mean±SEM. […] Between 15 and 30 dendritic processes were selected for quantification. Data were analyzed while blind to the conditions.
# [4] = test system: AMP-activated kinase (AMPK); experiment: AMPK kinase activity in neurons detected with phospho-acetyl-CoA carboxylase (Ser79) antibody; format: cell-based, rat; details: specificity control; pACC antibody, FIG. 3C
# [5] = test system: PAR-1/MARK-mediated tau phosphorylation; experiment: Tau phosphorylation in transfected rat hippocampal neurons (western blot / immunostaining with 12E8 and PHF-1 antibodies); format: cell-based
# Protocol: (§3) Robust 12E8 staining (gray) is seen in EGFP-transfected control neurons. Total tau is stained with anti-HA (gray). […] EGFP-transfected neurons served as control. […] Data quantification is shown in (3E) (***P<0.001 in Student's t-test). Scale bar, 10 μm.
# as §1
# EGFP-tagged PSD-95-WT in the FHUGW lentivirus vector was described before (Xu et al. (2008) Neuron 57:248-262). The S561A mutation was introduced by site-directed mutagenesis. Tau S2A mutations were introduced as described before (Nishimura et al. Cell, 116:671-682), and subcloned into FHUGW with a C-terminal HA tag. EGFP- and HA-tagged human MARK4 constructs were obtained from Dr. Gerard Drewes. MKI cDNA was obtained from Dr. C. […]
# as §2
# [6] = test system: rat hippocampal neurons; experiment: MARK4 overexpression-induced synaptic and spine toxicity in hippocampal neurons; format: cell-based
# Protocol: as §3, §1
# Chicken anti-EGFP (1:4000) and rabbit anti-HA (1:3000) antibodies were purchased from Abcam (Cambridge, Mass., USA); mouse anti-Myc (1:1500, 4A6) and mouse anti-PSD-95 (1:300) from Millipore (Billerica, Mass., USA); rabbit anti-GluR1 (1:200) from Calbiochem (San Diego, Calif., USA) and rabbit anti-Synapsin I (1:1000) from Sigma (St Louis, Mo., USA). Immunofluorescence analysis was done essentially as described before (Yu et al., supra). Confocal images were obtained using a Leica TCS SP5 confocal microscope or Zeiss inverted LSM510 confocal microscope (Carl Zeiss, Inc.) with 63× NA 1.4 objectives. Processed confocal images were used to make 2D projections. Dendritic spine number and clusters of PSD-95, GluR1 or Synapsin I were manually counted as the number along a 10 μm length of dendrite and presented as mean±SEM. Each experiment was done at least three times and six to nine neurons were randomly selected for analysis each time. Between 15 and 30 dendritic processes were selected for quantification. Data were analyzed while blind to the conditions.
# [7] = test system: Aβ-induced spine loss; details: Zempel et al. (2010); cited from earlier work
# [8] = test system: all MARKs; details: Nesic et al. (2010); cited from earlier work
compound,measurement,setting,value
CC(=O)N[C@@H](Cc1ccc(O)cc1)C(=O)NCC(=O)N[C@@H](CCCNC(=N)N)C(=O)N[C@@H](CCCCN)C(=O)N[C@@H](CCCCN)C(=O)N[C@@H](CCCNC(=N)N)C(=O)N[C@@H](CCCNC(=N)N)C(=O)N[C@@H](CCC(N)=O)C(=O)N[C@@H](CCCNC(=N)N)C(=O)N[C@@H](CCCNC(=N)N)C(=O)N[C@@H](CCCNC(=N)N)C(=O)NCC(=O)NCC(=O)N[C@@H](Cc1ccccc1)C(=O)N1CCC[C@H]1C(=O)N[C@@H](CC(C)C)C(=O)N[C@@H](CCCCN)C(=O)N[C@@H](CCCNC(=N)N)C(=O)N[C@@H](Cc1c[nH]cn1)C(=O)N[C@@H](CC(=O)O)C(=O)NCC(=O)N[C@H](C(=O)N[C@@H](CC(=O)O)C(=O)N[C@@H](CC(=O)O)C(=O)N[C@@H](CC(C)C)C(=O)N[C@@H](CO)C(=O)N[C@@H](CCCCN)C(=O)N[C@H](C(=O)NCC(N)=O)C(C)C)C(C)C [TAT-MKI] (Ac-YGRKKRRQRRRGGFPLKRHDGVDDLSKVG-NH2),MARK4-mediated tau phosphorylation in vitro,[1],inhibited
"MKI-EGFP: MKI cDNA subcloned into FHUGW lentivirus vector with a C-terminal EGFP tag, expressed in rat hippocampal neurons (FPLKRHDKVDDLSK; not fully specified (C-terminus))",reduction of mEPSC frequency caused by Aβ,"[2]; Aβ-treated neurons, held at −70 mV",effectively rescued
same,mEPSC amplitude in neurons expressing inhibitor alone,[2]; no Aβ (mock-treated),not amplitude
same,mEPSC frequency in neurons expressing inhibitor alone,[2]; no Aβ (mock-treated),reduced mEPSC frequency
same,Aβ-caused reduction in the density of PSD-95 puncta,[3]; FIGS. 4A and 4C,effectively blocked
same,Aβ-caused loss of dendritic spines,[3]; FIGS. 4A-4C,effectively blocked
same,Aβ-caused reduction in the density of GluR1 puncta,[3]; FIGS. 4B and 4C,effectively blocked
same,phosphorylation of acetyl-CoA carboxylase (ACC) by AMP-activated kinase (AMPK),[4],did not affect
same,MARK4-mediated phosphorylation of transfected human tau at the 12E8 sites,"[5]; HA-tagged h-tau-WT in rat hippocampal neurons, immunostaining, FIG. 3B",effectively attenuated
same,MARK4-mediated phosphorylation of endogenous tau at the 12E8 sites,"[5]; expressed in rat hippocampal neurons, western blot, FIG. 3A",effectively attenuated
same,MARK4 overexpression-induced reduction of GluR1 puncta density,[6]; FIG. 3E,effectively blocked
same,MARK4 overexpression-induced reduction of PSD-95 puncta density,[6]; FIG. 3E,effectively blocked
same,MARK4 overexpression-induced spine loss,"[6]; co-expression in rat hippocampal neurons, FIGS. 3D and 3E",effectively blocked
CC(=O)O[C@H]1C(=O)[C@@]2(C)[C@H]([C@H](OC(=O)c3ccccc3)[C@]3(O)C[C@H](OC(=O)[C@H](O)[C@@H](NC(=O)c4ccccc4)c4ccccc4)C(C)=C1C3(C)C)[C@]1(OC(C)=O)CO[C@@H]1C[C@@H]2O [taxol],Aβ-induced spine loss,[7],preventable
"MKI: peptide inhibitor (SEQ ID NO:1) derived from the CagA protein of Helicobacter pylori, binds substrate-binding sites of all MARKs (FPLKRHDKVDDLSK)",Phosphorylation of tau at the PHF-1 site,"[5]; rat hippocampal neurons, western blot, FIG. 3A",reduced
same,binding to the substrate-binding sites of all MARKs,[8],specifically bind with high affinity
